Experimental data as given in patent US20250367419A1, “DRUG DELIVERY SYSTEM COMPRISING AN AGENT EFFECTIVE IN THE TREATMENT OR PREVENTION OF AN ESOPHAGEAL DISEASE FOR THE APPLICATION TO ESOPHAGEAL MUCOUS MEMBRANES” (EsoCap AG, priority 2022, published 2025).
“Also recorded” adds a separate entry of the source. One block for each compound: values may come before it. r = 2'-OH (RNA)

How the values were obtained:
Format in all cases: physicochemical
[1] = Stability of RNA on the polymer film, 20% denaturing polyacrylamide gel
Description: • 1. preparation “base polymer mixture” • 2. sterilization • 3. preparation of film laminates • 4. drying • 5. cutting (A=0.25 cm^2) • 6. application of RNA samples on the polymer film • 7. drying of the final samples • !points 3-7 under aseptic conditions!
Stability of RNA on the film was analyzed using a 20% denaturizing polyacrylamide (PAA) gel. The experiment was repeated with a commercially available siRNA.
Stability of RNA on the film was further analyzed before and after solubilization of the film.

[2] = Stability of antisense BMP2 RNA on the film under various application and storage conditions, 20% denaturing polyacrylamide gel; conditions: for RNA degradation after storage of the dry film: 10 days of storage of the dry film at 4° C.
Description: A film containing the antisense RNA for BMP2 was prepared as described in Example 2 except for using PVA 4-88 instead of PVA 18-88.
The stability of the antisense BMP2 RNA was analyzed under various application conditions as indicated in FIG. 16 and the legend of FIG. 16. 10 pmol of each probe was loaded on a 20% denaturing polyacrylamide gel. The gel was run for 3 hours at 140 volt and subsequently colored with SYBR gold for 20 minutes.
The stability of labeled antisense BMP2 RNA was analyzed in comparison to unlabeled antisense BMP2 RNA under various application conditions as indicated in FIG. 17 and the legend of FIG. 17. In lanes 1 to […], 5 pmol of the probe, in lanes 4 to 6, 10 pmol of each probe were loaded on a 20% denaturing polyacrylamide gel. The gel was run for 3 hours at 140 volt and subsequently colored with ethidium bromide for 30 minutes (FIG. 17a) or excited with light of a wavelength of 630 nm and emission was measured at 675 nm (FIG. 17b). The bands of labeled BMP2 RNA in FIG. 17b correspond to the band of the unlabeled BMP2 RNA in FIG. 17a Since the unlabeled BMP2 RNA has no fluorescent marker, the bands of unlabeled BMP2 RNA are not visible in FIG. 17b.
The stability of labeled antisense BMP2 RNA was analyzed in comparison to unlabeled antisense BMP2 RNA after storage of the dry film for 10 days at 4° C. Probes were loaded on a 20% denaturing polyacrylamide gel. The gel was run for 3 hours at 140 volt and subsequently colored with ethidium bromide for 30 minutes (FIG. 18b) or excited with light of a wavelength of 630 nm and emission was measured at 675 nm (FIG. 18a). The bands of labeled BMP2 RNA in FIG. 18a correspond to the band of the unlabeled BMP2 RNA in FIG. 18b.

[3] = HPLC analysis of paclitaxel content of the coated polymer film; conditions: API-loaded film sample compared with calibration sample
Description: • 1. Preparation polymer mixture • 2. Preparation of film laminates • 3. Slitting of the moist laminates • 4. Coating of the moist laminates • 5. Drying at room temperature
Further, the film was analyzed for the content of paclitaxel. To this end, 5 circular samples with a size of 1 cm^2 were cut at random positions of the film and dissolved in Brij® L23-buffer/methanol (MeOH) for HPLC analysis with Hypersil ODS 150×4.6 mm as stationary phase and acetonitrile/phosphate buffer as mobile phase. The HPLC results are shown in FIG. 11 in comparison to a blank film sample and a calibration sample.

Compound: 5′ UGCGCAGAAUGAGAUGAGUUG 3′ (UGCGCAGAAUGAGAUGAGUUG; listed as RNA, chemistry not given here)
influence of the film on RNA stability ([1]; RNA applied on PVA 18-88 film, 20% denaturing PAA gel): no influence on the stability
storage stability of RNA on the dry film ([1]; dried samples on the film, 4 days at 4° C.): no influence on RNA stability

Compound: 5′-AUU UCG AGU UGG CUG UUG C-3′ (antisense AUUUCGAGUUGGCUGUUGC; RNA, 3' rUrU, backbone not given here) [BMP2 RNA, antisense strand of BMP2-siRNA 2]
RNA degradation after storage of the dry film [2]: no RNA degradation could be observed
stability of RNA after application to the film ([2]; PVA 4-88 film, various application conditions, compared with stock sample): no difference between the test sample and the stock sample; also recorded: not degraded by the film

stability of paclitaxel prepared in a film [3]: can be stably prepared in a film
Compound: CC(=O)O[C@H]1C(=O)[C@@]2(C)[C@H]([C@H](OC(=O)c3ccccc3)[C@]3(O)C[C@H](OC(=O)[C@H](O)[C@@H](NC(=O)c4ccccc4)c4ccccc4)C(C)=C1C3(C)C)[C@]1(OC(C)=O)CO[C@@H]1C[C@@H]2O [paclitaxel, (2α,4α,5β,7β,10β,13α)-4,10-Bis(acetyloxy)-13-{[(2R,3S)-3-(benzoylamino)-2-hydroxy-3-phenylpropanoyl]oxy}-1,7-dihydroxy-9-oxo-5,20-epoxytax-11-en-2-yl-benzoat]

Compound: labeled BMP2 RNA: SEQ ID NO:23 antisense BMP2 RNA labeled with the dye Atto633 attached to the 3′ end (antisense AUUUCGAGUUGGCUGUUGC; listed as RNA, chemistry not fully specified)
RNA degradation after storage of the dry film [2]: no RNA degradation could be observed
